Patent publication US8921373B2, “Compounds having TRPV1 antagonistic activity and uses thereof” (Shionogi & Co., Ltd., priority 2010, dated 2014)
pIC50: −log10 of the molar value.

Legend:
[1] = Measurement of body temperature increase (rectal body temperature); type: in vivo, rat; conditions: Crl/SD rats, oral; for Body temperature increase: 1 mg/mL at 10 mL/kg; for Body temperature increase ΔTb: 1 mg/mL in 0.5% methylcellulose at 10 mL/kg, difference from vehicle group average
Method: Test Animals: Selection of rats (Crl/SD rats, 7 weeks, male) for this study was based on rectal body temperature measured during the morning of the day of dosing. In addition, animals selected for this study were acclimated to both the rectal measurement procedure and to being handled and dosed to minimize spontaneous, stress-induced, increases in body temperature. The study was conducted in the animal care laboratories where the room temperature and humidity were kept. The rats were free to move and food and water during the study. Each rat was numbered with color line on the tail, housed in each cage and permitted the normal range of movement. Immediately before each body temperature was measured, they transferred to a single cage at each measurement. To reduce stress which affected the body temperature, the rats were covered with towels at the measurement. The thermistor probe was then carefully inserted into the rectum of each rat and left in place until the value on the digital display had stabilized.
Assays: On the day before dosing, rectal body temperatures were measured at 9:00, 10:00, 11:00, 12:30, 13:30, 14:30 and 15:30 to familiarize the animals with the measurement procedure prior to administration of the test or control treatments. The rats were also dosed by oral gavage without vehicle at 12:30 to acclimate and familiarized the animals with the handling and dosing procedure.
On the day of dosing, only rats whose rectal body temperatures were within the range of 37.0° C. to 37.7° C. were selected for this study. Rectal body temperatures were measured at 9:00, 10:00 and 11:00. Rats whose rectal body temperatures were over 37.9° C. at 10:00, and were outside the range of 37.0° C. to 37.7° C. at 11:00 were excluded from the study. The selected rats were divided to several groups based on their rectal body temperatures at 11:00. Rectal body temperatures of the selected rats were measured again at 12:30, and any rats whose rectal body temperature was 38.0° C. or greater were excluded from the study.
Following the group assignment, test compounds or vehicle was administrated to the rats. Each test compound was dissolved in 0.5% methylcellurose and the final concentration of the compound was adjusted to 1 mg/mL. Test compound was orally administrated in a volume 10 mL/kg once. 10 mL/kg of vehicle (0.5% methylcellurose) was administered to the vehicle group. The rectal body temperatures were measured 0.5, 1 and 2 hrs after the administration. The study was conducted in the animal care laboratories where the room temperature and humidity were kept.
Body temperature increase (ΔTb) was calculated from the difference from an average of the vehicle group at each time point.

[2] = biological target: T1, human recombinant TRPV1 (Homo sapiens (Human), UniProt Q8NER1); assay: TRPV1 Capsaicin-Based Assay (Protocol 2, TRPV1/CHO cells, Fluo-4, FLIPR); type: cell-based; conditions: TRPV1/CHO cells, capsaicin 100 nM final; read-out: IC50 value by the Capsaicin-Based Assay
T1 sequence (Q8NER1 whole entry): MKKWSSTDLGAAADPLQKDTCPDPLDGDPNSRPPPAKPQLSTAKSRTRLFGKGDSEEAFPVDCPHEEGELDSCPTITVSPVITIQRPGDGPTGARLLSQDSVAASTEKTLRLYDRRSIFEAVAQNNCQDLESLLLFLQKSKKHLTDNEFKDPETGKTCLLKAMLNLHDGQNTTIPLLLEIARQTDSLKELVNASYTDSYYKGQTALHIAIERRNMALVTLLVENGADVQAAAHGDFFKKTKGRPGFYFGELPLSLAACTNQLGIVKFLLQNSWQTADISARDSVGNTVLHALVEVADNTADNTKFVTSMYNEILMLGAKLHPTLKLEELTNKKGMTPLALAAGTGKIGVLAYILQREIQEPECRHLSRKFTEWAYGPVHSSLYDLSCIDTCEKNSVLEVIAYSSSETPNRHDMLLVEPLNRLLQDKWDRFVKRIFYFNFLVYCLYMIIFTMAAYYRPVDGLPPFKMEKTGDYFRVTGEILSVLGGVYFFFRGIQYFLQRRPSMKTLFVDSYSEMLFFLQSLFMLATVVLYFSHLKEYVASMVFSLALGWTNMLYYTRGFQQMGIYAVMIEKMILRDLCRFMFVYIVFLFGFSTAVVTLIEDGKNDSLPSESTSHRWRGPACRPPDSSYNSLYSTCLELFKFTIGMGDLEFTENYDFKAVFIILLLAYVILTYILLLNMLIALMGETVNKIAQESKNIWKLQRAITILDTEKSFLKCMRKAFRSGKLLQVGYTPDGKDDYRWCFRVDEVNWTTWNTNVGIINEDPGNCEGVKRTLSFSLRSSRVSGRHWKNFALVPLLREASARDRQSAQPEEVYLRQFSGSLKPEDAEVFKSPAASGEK
Method: For Protocol 2, a Chinese Hamster Ovary cell line (CHO) that has been engineered to constitutively express human recombinant TRPV1 was used (TRPV1/CHO cells). The TRPV1/CHO cell line was generated as described below.
One day prior to assay, TRPV1/CHO cells were seeded in 96-well clear-bottom black plates (20,000 cells/well) in growth media. On the day of the experiment, the cells were washed with 0.2 mL 1× Hank's Balanced Salt Solution (Life Technologies) containing 1.6 mM CaCl2 and 20 mM HEPES, pH 7.4 (“wash buffer”). Subsequently, the cells were loaded by incubation in 0.1 mL of wash buffer containing Fluo-4 at 3 μM final concentration. After 1 hour, the cells were washed twice with 0.2 mL wash buffer and resuspended in 0.1 mL wash buffer. The plates were then transferred to a Fluorescence Imaging Plate Reader (Molecular Devices). Fluorescence intensity was monitored for 15 seconds to establish a baseline. Subsequently, test compounds diluted in assay buffer (1× Hank's Balanced Salt Solution containing 1 mM CaCl2 and 20 mM HEPES, pH 7.4) containing 1% DMSO were added to the cell plate and fluorescence was monitored for 2 minutes. […] Human TRPV1 was then activated by the addition of 50 μL capsaicin (100 nM final concentration) and plates incubated for an additional 3 min. Data were collected over the entire time course and analyzed using Excel and the curve-fitting formula GraphPad Prism.

[3] = biological target: T1, human recombinant TRPV1; assay: TRPV1 pH-Based Assay (Protocol 2, Ca2+ response in TRPV1/CHO cells, Fura-2); type: cell-based; conditions: TRPV1/CHO cells, pH 5.0-5.1; read-out: IC50 value by the pH-Based Assay
Procedure, shortened: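 CHO cells stably expressing human TRPV1, Fura-2 loaded, given compound (1% DMSO in 10× stock) before acid challenge to final pH 5.0-5.1 (3.2 or 3.3 mM H2SO4). 340/380 nm ratio recorded at 0.5 Hz; maximal ratio after agonist addition versus 16-point baseline used as response.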

| Body temperature increase [1] | pIC50 [2] | pIC50 [3] | Body temperature increase ΔTb [1] [°C] | SMILES |
| --- | --- | --- | --- | --- |
| less than 0.5 °C | ≥ 7.30 | ≥ 7.30 |  | O=C(Nc1nc2ccc(F)cc2s1)N1CCN(c2ncc(C[C@@H](O)CO)cc2F)CC1 [ACW, (R)-4-(5-(2,3-dihydroxypropyl)-3-fluoropyridin-2-yl)-N-(6-fluorobenzo[d]-thiazol-2-yl)piperazine-1-carboxamide] |
| less than 0.5 °C | ≥ 7.30 |  |  | Cc1ccc2nc(NC(=O)N3CCN(c4ncc(C[C@H](O)CO)cc4Cl)CC3)sc2c1 [ADX] |
| less than 0.5 °C |  | ≥ 7.30 |  | Cc1cc(NC(=O)N2CC=C(c3ncc(C[C@@H](O)CO)cc3Cl)CC2)ccc1C(F)(F)F [AAW, (R)-4-(3-Chloro-5-(2,3-dihydroxypropyl)pyridin-2-yl)-N-(3-methyl-4-(trifluoromethyl)phenyl)-5,6-dihydropyridine-1(2H)-carboxamide] |
| less than 0.5 °C |  | ≥ 7.30 |  | C[C@@H]1CN(c2ncc(C[C@@H](O)CO)cc2F)CCN1C(=O)Nc1nc2ccc(Cl)cc2s1 [ADK, (R)-N-(6-chlorobenzo[d]thiazol-2-yl)-4-{5-[(R)-2,3-dihydroxypropyl]-3-fluoropyridin-2-yl}-2-methylpiperazine-1-carboxamide] |
| less than 0.5 °C | ≥ 7.30 | ≥ 7.30 |  | O=C(Nc1nc2ccc(F)cc2s1)N1CCN(c2ncc(C[C@@H](O)CO)cc2Cl)CC1 [ACV, (R)-4-(3-chloro-5-(2,3-dihydroxypropyl)pyridin-2-yl)-N-(6-fluorobenzo[d]thiazol-2-yl)piperazine-1-carboxamide] |
| less than 0.5 °C | ≥ 7.30 | ≥ 7.30 |  | Cc1cc(NC(=O)N2CC=C(c3ncc(C[C@H](O)CO)cc3F)CC2)ccc1C(F)(F)F [ABY, (S)-5-(2,3-dihydroxypropyl)-3-fluoro-N-(3-methyl-4-(trifluoromethyl)phenyl)-5′,6′-dihydro-[2,4′-bipyridine]-1′(2′H)-carboxamide] |
| less than 0.5 °C |  | ≥ 7.30 |  | COc1cc(NC(=O)N2CC=C(c3ncc(C[C@@H](O)CO)cc3Cl)CC2)ccc1C(F)(F)F [AAM, (R)-4-(3-Chloro-5-(2,3-dihydroxypropyl)pyridin-2-yl)-N-(3-methoxy-4-(trifluoromethyl)phenyl)-5,6-dihydropyridine-1(2H)-carboxamide] |
|  |  | ≥ 7.30 | 0.24 | Cc1cc2nc(NC(=O)N3CCN(c4ncc(C[C@@H](O)CO)cc4F)CC3)sc2cc1C [ACZ, (R)-4-(5-(2,3-dihydroxypropyl)-3-fluoropyridin-2-yl)-N-(5,6-dimethylbenzo[d]thiazol-2-yl)piperazine-1-carboxamide] |
| less than 0.5 °C | ≥ 7.30 |  |  | C[C@H]1CN(c2ncc(C[C@H](O)CO)cc2Cl)CCN1C(=O)Nc1nc2ccc(Cl)cc2s1 [AEG] |
|  | ≥ 7.30 | ≥ 7.30 | 0.16 | Cc1cc(NC(=O)N2CCC(F)(c3ncc(C[C@@H](O)CO)cc3F)CC2)ccc1OC(F)(F)F [ACP, (R)-4-(5-(2,3-dihydroxypropyl)-3-fluoropyridin-2-yl)-4-fluoro-N-(3-methyl-4-(trifluoromethoxy)phenyl)piperidine-1-carboxamide] |

Continued, compound first:

| SMILES | Body temperature increase [1] | pIC50 [2] | pIC50 [3] | Body temperature increase ΔTb [1] [°C] |
| --- | --- | --- | --- | --- |
| O=C(Nc1nc2ccc(F)cc2s1)N1CCN(c2ncc(C[C@H](O)CO)cc2Cl)CC1 [ADR] | less than 0.5 °C | ≥ 7.30 | ≥ 7.30 |  |
| Cc1ccc2nc(NC(=O)N3CCN(c4ncc(C[C@@H](O)CO)cc4Cl)CC3)sc2c1 [ADU] | less than 0.5 °C | ≥ 7.30 | ≥ 7.30 |  |
| O=C(Nc1nc2ccc(Cl)cc2s1)N1CCN(c2ncc(C[C@H](O)CO)cc2F)CC1 [ADE, (S)-N-(6-chlorobenzo[d]thiazol-2-yl)-4-(5-(2,3-dihydroxypropyl)-3-fluoropyridin-2-yl)piperazine-1-carboxamide] | less than 0.5 °C | ≥ 7.30 | ≥ 7.30 |  |
| Cc1cc(NC(=O)N2CC=C(c3ncc(C[C@H](O)CO)cc3F)CC2)ccc1OC(F)(F)F [ABZ, (S)-5-(2,3-dihydroxypropyl)-3-fluoro-N-(3-methyl-4-(trifluoromethoxy)-phenyl)-5′,6′-dihydro-[2,4′-bipyridine]-1′(2′H)-carboxamide] |  |  | ≥ 7.30 | 0.03 |
| O=C(Nc1nc2ccc(Cl)cc2s1)N1CCN(c2ncc(C[C@H](O)CO)cc2Cl)CC1 [ADW] | less than 0.5 °C | ≥ 7.30 | ≥ 7.30 |  |
| O=C(Nc1ccc(C(F)(F)F)c(Cl)c1)N1CC=C(c2ncc(C[C@@H](O)CO)cc2Cl)CC1 [AAK, (R)-N-(3-Chloro-4-(trifluoromethyl)phenyl)-4-(3-chloro-5-(2,3-dihydroxypropyl)pyridin-2-yl)-5,6-dihydropyridine-1(2H)-carboxamide] | less than 0.5 °C |  | ≥ 7.30 |  |
| O=C(Nc1nc2ccc(Cl)cc2s1)N1CCN(c2ncc(C[C@@H](O)CO)cc2Cl)CC1 [ADT] | less than 0.5 °C | ≥ 7.30 | ≥ 7.30 |  |
| O=C(Nc1nc2ccc(Cl)cc2s1)N1CCN(c2ncc(C[C@@H](O)CO)cc2F)CC1 [ACX, (R)-N-(6-chlorobenzo[d]thiazol-2-yl)-4-(5-(2,3-dihydroxypropyl)-3-fluoropyridin-2-yl)piperazine-1-carboxamide] | less than 0.5 °C | ≥ 7.30 | ≥ 7.30 |  |
| O=C(Nc1nc2ccc(F)cc2s1)N1CCN(c2ncc(C[C@H](O)CO)cc2F)CC1 [ADD, (S)-4-(5-(2,3-dihydroxypropyl)-3-fluoropyridin-2-yl)-N-(6-fluorobenzo[d]-thiazol-2-yl)piperazine-1-carboxamide] | less than 0.5 °C |  | ≥ 7.30 |  |
| Cc1ccc2nc(NC(=O)N3CCN(c4ncc(C[C@@H](O)CO)cc4F)CC3)sc2c1 [ACY, (R)-4-(5-(2,3-dihydroxypropyl)-3-fluoropyridin-2-yl)-N-(6-methylbenzo[d]-thiazol-2-yl)piperazine-1-carboxamide] | less than 0.5 °C | ≥ 7.30 | ≥ 7.30 |  |
